The target of one experiment is recombinant Plk1 (Homo sapiens, UniProt P53350). Kind of experiment: In Vitro Plk1 Enzyme Assay (SPA, GST-Cdc25C phosphorylation). As to conditions: ATP 64 nM, 90 minutes, read-out: IC50 (Plk1 enzyme inhibition). In kind it is biochemical.
Experiment [1] concerns human colon tumour cell line HT29. Kind of experiment: Cellular Assay (phosphohistone H3 Ser10 mitotic marker, HT29). In kind it is cell-based. As to conditions: HT-29, 24 h, HT29 cells.
Experimental: Chromosome condensation in mitosis is accompanied by phosphorylation of histone H3 on serine 10.
After 24 hours, cells were fixed in 3.7% (v/v) formaldehyde then permeabilised and blocked for 10 minutes in 100 μl 0.5% (v/v) Triton X-100, 1% (w/v) bovine serum albumin (BSA) in phosphate buffered saline (PBS). […] The raw assay data were analysed by non-linear regression analysis and used to determine an IC50 value for each compound.
Where [2] appears, read: read-out: IC50 (cellular assay, phosphohistone H3).

Where two headings read alike, the source gives them in different places.

Sequence of recombinant Plk1 (P53350 whole entry): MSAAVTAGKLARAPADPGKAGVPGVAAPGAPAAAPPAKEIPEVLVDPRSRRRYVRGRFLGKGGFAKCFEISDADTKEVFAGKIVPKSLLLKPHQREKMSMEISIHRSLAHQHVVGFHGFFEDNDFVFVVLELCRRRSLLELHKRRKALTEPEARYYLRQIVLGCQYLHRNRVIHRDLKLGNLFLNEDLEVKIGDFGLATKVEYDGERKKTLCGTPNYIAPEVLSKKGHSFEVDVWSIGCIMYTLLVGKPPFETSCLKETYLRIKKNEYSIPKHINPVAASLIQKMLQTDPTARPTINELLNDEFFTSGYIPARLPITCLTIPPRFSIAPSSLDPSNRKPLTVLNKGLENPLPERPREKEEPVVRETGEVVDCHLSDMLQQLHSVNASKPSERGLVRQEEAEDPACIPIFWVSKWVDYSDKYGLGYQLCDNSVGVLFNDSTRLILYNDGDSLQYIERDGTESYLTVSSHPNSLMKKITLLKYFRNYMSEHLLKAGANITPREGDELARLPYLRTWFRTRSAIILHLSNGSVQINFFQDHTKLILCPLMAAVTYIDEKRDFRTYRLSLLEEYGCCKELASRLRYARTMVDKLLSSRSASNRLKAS

Broadly, the IC50 is the concentration at which inhibition is half-maximal. As to `CC(C)Oc1cc(C(=O)NC2CCN(C)CC2)ccc1Nc1ncc2c(n1)N(C1CCCC1)CCC(=O)N2C` [Example 197, 4-[(6-cyclopentyl-2-methyl-3-oxo-2,6,8,10-tetrazabicyclo[5.4.0]undeca-8,10,12-trien-9-yl)amino]-N-(1-methyl-4-piperidyl)-3-propan-2-yloxy-benzamide], the IC50 (at recombinant Plk1; in experiment [1] (setting [2])) was less than 1000 nM in each case.
On to `COc1cc(C(=O)NC2CN3CCC2CC3)ccc1Nc1ncc2c(n1)N(C1CCCC1)CCC(=O)N2C` (stereo not shown) [Example 22, N-(1-azabicyclo[2.2.2]oct-8-yl)-4-[(6-cyclopentyl-2-methyl-3-oxo-2,6,8,10-tetrazabicyclo[5.4.0]undeca-8,10,12-trien-9-yl)amino]-3-methoxy-benzamide], for which the 50% inhibitory concentration (IC50) (at recombinant Plk1; in experiment [1] (setting [2])) was less than 300 nM each time.
In the case of `CCN(CC)CCCC(C)NC(=O)c1ccc(Nc2ncc3c(n2)N(C2CCCC2)CCC(=O)N3C)c(OC)c1` (stereo not shown) [Example 17, 4-[(6-cyclopentyl-2-methyl-3-oxo-2,6,8,10-tetrazabicyclo[5.4.0]undeca-8,10,12-trien-9-yl)amino]-N-(5-diethylaminopentan-2-yl)-3-methoxy-benzamide], the IC50 (on recombinant Plk1; in experiment [1] (setting [2])) was less than 300 nM each time.
Turning to `CC(C)N1CCC(=O)N(C)c2cnc(Nc3ccc(C(=O)NC4CCN(C)CC4)cc3Cl)nc21` [Example 203, 3-chloro-4-[(2-methyl-3-oxo-6-propan-2-yl-2,6,8,10-tetrazabicyclo[5.4.0]undeca-7,9,11-trien-9-yl)amino]-N-(1-methyl-4-piperidyl)benzamide], the IC50 (at recombinant Plk1; in experiment [1] (setting [2])) was less than 300 nM in each case.
With `COc1cc(C(=O)NC2CCN(C)CC2)ccc1Nc1ncc2c(n1)N(CC(=N)OC(C)CC(C)C)CCC(=O)N2C` (stereo not shown) [Example 272, 3-methoxy-4-[[6-methyl-2-[(4-methylpentan-2-yloxycarbonimidoyl)methyl]-5-oxo-2,6,9,11-tetrazabicyclo[5.4.0]undeca-7,9,11-trien-10-yl]amino]-N-(1-methyl-4-piperidyl)benzamide], the half-inhibitory concentration (IC50) is less than 1000 nM at recombinant Plk1 and less than 30000 nM in experiment [1] (setting [2]).
For `CN1CCC(NC(=O)c2coc(Nc3ncc4c(n3)N(C3CCCC3)CCC(=O)N4C)n2)CC1` [Example 265, 2-[(6-cyclopentyl-2-methyl-3-oxo-2,6,8,10-tetrazabicyclo[5.4.0]undeca-8,10,12-trien-9-yl)amino]-N-(1-methyl-4-piperidyl)1,3-oxazole-4-carboxamide], in that order: less than 100000 nM and less than 30000 nM.
On to `COc1cc(C(=O)NCCCN2CCN(C)CC2)ccc1Nc1ncc2c(n1)N(C1CCCC1)CCC(=O)N2C` [Example 20, 4-[(6-cyclopentyl-2-methyl-3-oxo-2,6,8,10-tetrazabicyclo[5.4.0]undeca-8,10,12-trien-9-yl)amino]-3-methoxy-N-[3-(4-methylpiperazin-1-yl)propyl]benzamide], for which the IC50 (at recombinant Plk1; in experiment [1] (setting [2])) was less than 300 nM throughout.
For the compound `COc1cc(C(=O)NC2CCN(C)CC2)ccc1Nc1ncc2c(n1)N(Cc1ccccc1)CCC(=O)N2C` [Example 215, 4-[(6-benzyl-2-methyl-3-oxo-2,6,8,10-tetrazabicyclo[5.4.0]undeca-8,10,12-trien-9-yl)amino]-3-methoxy-N-(1-methyl-4-piperidyl)benzamide], the IC50 was less than 1000 nM at recombinant Plk1 and less than 30000 nM in experiment [1] (setting [2]).
For `CN1CCC(NC(=O)c2ccc(Nc3ncc4c(n3)N(C3CCCC3)CCC(=O)N4C)c(Cl)c2)CC1` [Example 185, 3-chloro-4-[(6-cyclopentyl-2-methyl-3-oxo-2,6,8,10-tetrazabicyclo[5.4.0]undeca-8,10,12-trien-9-yl)amino]-N-(1-methyl-4-piperidyl)benzamide], in that order: less than 300 nM and less than 300 nM.
For the compound `COc1cc(C(=O)NCCN(C)C)ccc1Nc1ncc2c(n1)N(C1CCCC1)CCC(=O)N2C` [Example 14, 4-[(6-cyclopentyl-2-methyl-3-oxo-2,6,8,10-tetrazabicyclo[5.4.0]undeca-8,10,12-trien-9-yl)amino]-N-(2-dimethylaminoethyl)-3-methoxy-benzamide], the IC50 at recombinant Plk1 was less than 300 nM; in experiment [1] (read-out: Cell IC50), 92 nM; in experiment [1] (setting [2]), less than 300 nM.
Turning to `COc1cc(C(=O)N[C@H]2CCN(C)C2)ccc1Nc1ncc2c(n1)N(C1CCCC1)CCC(=O)N2C` [Example 63, 4-[(6-cyclopentyl-2-methyl-3-oxo-2,6,8,10-tetrazabicyclo[5.4.0]undeca-8,10,12-trien-9-yl)amino]-3-methoxy-N-[(3S)-1-methylpyrrolidin-3-yl]benzamide], the IC50 (at recombinant Plk1; in experiment [1] (setting [2])) was less than 300 nM throughout.
Take `CN(C)CC(C)(C)CNC(=O)c1ccc(Nc2ncc3c(n2)N(c2ccccc2)CCC(=O)N3C)cc1` [Example 223, N-(3-dimethylamino-2,2-dimethyl-propyl)-4-[(2-methyl-3-oxo-6-phenyl-2,6,8,10-tetrazabicyclo[5.4.0]undeca-8,10,12-trien-9-yl)amino]benzamide]: the IC50 is less than 1000 nM on recombinant Plk1 and less than 30000 nM in experiment [1] (setting [2]).
As to `CCN1CC[C@@H](NC(=O)c2ccc(Nc3ncc4c(n3)N(C3CCCC3)CCC(=O)N4C)c(OC)c2)C1` [Example 326, 4-[(2-cyclopentyl-6-methyl-5-oxo-2,6,9,11-tetrazabicyclo[5.4.0]undeca-7,9,11-trien-10-yl)amino]-N-[(3R)-1-ethylpyrrolidin-3-yl]-3-methoxy-benzamide], the IC50 (on recombinant Plk1; in experiment [1] (setting [2])) was less than 300 nM throughout.
Consider `CN1CCC(NC(=O)c2cnc(Nc3ncc4c(n3)N(C3CCCC3)CCC(=O)N4C)o2)CC1` [Example 264, 2-[(6-cyclopentyl-2-methyl-3-oxo-2,6,8,10-tetrazabicyclo[5.4.0]undeca-8,10,12-trien-9-yl)amino]-N-(1-methyl-4-piperidyl)1,3-oxazole-5-carboxamide], for which the IC50 is less than 100000 nM at recombinant Plk1 and less than 30000 nM in experiment [1] (setting [2]).
For `CCN(CC)CCCNC(=O)c1ccc(Nc2ncc3c(n2)N(C2CCCC2)CCC(=O)N3C)c(OC)c1` [Example 78, 4-[(6-cyclopentyl-2-methyl-3-oxo-2,6,8,10-tetrazabicyclo[5.4.0]undeca-8,10,12-trien-9-yl)amino]-N-(3-diethylaminopropyl)-3-methoxy-benzamide], in that order: less than 300 nM and less than 300 nM.
`COc1cc(C(=O)NC2CCN(C)CC2)c(Cl)cc1Nc1ncc2c(n1)N(C1CCCC1)CCC(=O)N2C` [Example 320, 2-chloro-4-[(2-cyclopentyl-6-methyl-5-oxo-2,6,9,11-tetrazabicyclo[5.4.0]undeca-7,9,11-trien-10-yl)amino]-5-methoxy-N-(1-methyl-4-piperidyl)benzamide]: the IC50 (on recombinant Plk1; in experiment [1] (setting [2])) was less than 300 nM throughout.
For `COc1cc(C(=O)N[C@H]2[C@@H]3CNC[C@@H]32)ccc1Nc1ncc2c(n1)N(C1CCCC1)CCC(=O)N2C` [Example 57, N-[(1S,5R)-3-azabicyclo[3.1.0]hex-6-yl]-4-[(6-cyclopentyl-2-methyl-3-oxo-2,6,8,10-tetrazabicyclo[5.4.0]undeca-8,10,12-trien-9-yl)amino]-3-methoxy-benzamide], the IC50 (at recombinant Plk1; in experiment [1] (setting [2])) was less than 300 nM throughout.
Take `CN1CC[C@@H](NC(=O)c2cc(Cl)c(Nc3ncc4c(n3)N(C3CCCC3)CCC(=O)N4C)cc2F)C1` [Example 325, 5-chloro-4-[(2-cyclopentyl-6-methyl-5-oxo-2,6,9,11-tetrazabicyclo[5.4.0]undeca-7,9,11-trien-10-yl)amino]-2-fluoro-N-[(3R)-1-methylpyrrolidin-3-yl]benzamide]: the IC50 (at recombinant Plk1; in experiment [1] (setting [2])) was less than 300 nM in each case.
For the compound `COCC(C)N1CCC(=O)N(C)c2cnc(Nc3ccc(C(=O)NC4CCN(C)CC4)cc3OC)nc21` (stereo not shown) [Example 230, 3-methoxy-4-[[6-(1-methoxypropan-2-yl)-2-methyl-3-oxo-2,6,8,10-tetrazabicyclo[5.4.0]undeca-7,9,11-trien-9-yl]amino]-N-(1-methyl-4-piperidyl)benzamide], the results for the IC50 (on recombinant Plk1; in experiment [1] (setting [2])) were less than 1000 nM and less than 30000 nM, respectively.
With `COc1cc(C(=O)NCC2(CN3CCCC3)CC2)ccc1Nc1ncc2c(n1)N(C1CCCC1)CCC(=O)N2C` [Example 83, 4-[(6-cyclopentyl-2-methyl-3-oxo-2,6,8,10-tetrazabicyclo[5.4.0]undeca-8,10,12-trien-9-yl)amino]-3-methoxy-N-[[1-(pyrrolidin-1-ylmethyl)cyclopropyl]methyl]benzamide], the IC50 (on recombinant Plk1; in experiment [1] (setting [2])) was less than 300 nM throughout.
With `CN1C(=O)CCN(C2CCCC2)c2nc(Nc3ccc(C(=O)NCCN4CCOCC4)cc3Cl)ncc21` [Example 184, 3-chloro-4-[(6-cyclopentyl-2-methyl-3-oxo-2,6,8,10-tetrazabicyclo[5.4.0]undeca-8,10,12-trien-9-yl)amino]-N-(2-morpholin-4-ylethyl)benzamide], the IC50 (on recombinant Plk1; in experiment [1] (setting [2])) was less than 1000 nM each time.
Regarding `COc1cc(C(=O)NC2CCN(C)CC2)ccc1Nc1ncc2c(n1)N(C1CCCC1)CCCN2C` [Example 4, 4-[(2-Cyclopentyl-6-methyl-2,6,9,11-tetrazabicyclo[5.4.0]undeca-8,10,12-trien-10-yl)amino]-3-methoxy-N-(1-methyl-4-piperidyl)benzamide], the IC50 at recombinant Plk1 was less than 100000 nM; in experiment [1] (setting [2]) it was less than 1000 nM.
For `CN1C(=O)CCN(C2CCCC2)c2nc(Nc3ccc(OCCN4CCOCC4)cc3)ncc21` [Example 135, 6-cyclopentyl-2-methyl-9-[[4-(2-morpholin-4-ylethoxy)phenyl]amino]-2,6,8,10-tetrazabicyclo[5.4.0]undeca-8,10,12-trien-3-one], in that order: less than 100000 nM and less than 1000 nM.
For `COc1cc(C(=O)N[C@H]2[C@@H]3CN(C)C[C@@H]32)ccc1Nc1ncc2c(n1)N(C1CCCC1)CCC(=O)N2C` [Example 64, 4-[(6-cyclopentyl-2-methyl-3-oxo-2,6,8,10-tetrazabicyclo[5.4.0]undeca-8,10,12-trien-9-yl)amino]-3-methoxy-N-[(1S,5R)-3-methyl-3-azabicyclo[3.1.0]hex-6-yl]benzamide], in that order: less than 300 nM and less than 300 nM.

The values above are taken from US7709471B2, “Compounds” (AstraZeneca AB, priority 2006, dated 2010).
